Data published in patent publication US20210198256A1, “COMPOUNDS FOR THE DEGRADATION OF BRD9 OR MTH1” (C4 Therapeutics, Inc., priority 2018, published 2021).

Test system: SMART-CAR_MTH1-WT (Jurkat.2 cells)
Assay: HTFC Assay (HTFC DC50)
Format: cell-based, human
Details: Jurkat.2 (SMART-CAR_MTH1-WT) cells, 4 hours at 37° C., FITC anti-HA staining, flow cytometry
Experimental: FITC anti-HA.11 epitope tag antibody (Biolegend #901507) FITC Mouse IgG1 k isotope control antibody (Biolegend #400108)
Dry dispense 10 nL/well of compound+90 […] into 96-well V-bottom plates: 4 compounds/plate in 11-point dose response in biological duplicates. Column 12 as DMSO controls.
• 1. Plate Jurkat.2 (SMART-CAR_MTH1-WT) cells with Combi on top of dry dispensed compound: 500,000 cells/mL, 100 uL/well • 2. Incubate for 4 hours at 37° C. • 3. Fixation, permeabilization, and staining: • a. Centrifuge at 1500 rpm for 7 minutes, remove supernatant. • b. Add 100 μl of Fixation/Permeabilization Solution, seal plates, vortex, pulse spin, and incubate at 4° C. for 30 minutes. • c. Centrifuge at 1500 rpm for 7 minutes, remove supernatant. • d. Dilute BD Perm/Wash Buffer to 1× with milliQ water. • e. Wash with 200 uL of BD Perm/Wash Buffer, seal plates, vortex. • f. Centrifuge at 1500 rpm for 7 minutes, remove supernatant. • g. Wash with 200 uL of BD Perm/Wash Buffer, seal plates, vortex. (Option to stop, store at 4° C. if needed) • h. Centrifuge at 1500 rpm for 7 minutes, remove supernatant. • i. Add 50 uL BD Perm/Wash Buffer containing 1:1000 of HA-FITC (Well A12:D12) or IgG-FITC (Well F12:H12) directly conjugated antibody, seal plates, vortex, pulse spin, and incubate at 4° C. for 1 hour. • j. Centrifuge at 1500 rpm for 7 minutes, remove supernatant. • k. Wash with 200 uL of BD Perm/Wash Buffer, seal plates, vortex. • 4. Centrifuge at 1500 rpm for 7 minutes, remove supernatant. • a. Resuspend in 200 ul of BD Perm/Wash Buffer. (Option to stop, store at 4° C. if needed)
• 1. Use analysis from template HTFC file. • 2. Export statistics by going to Tools>Group stats, save as a .csv file with the plate barcode as the name. • 3. Remove all columns from this file except for “Well”, “Sample ID”, “Date”, and “HA+.Mean.Y Mean for HA+ gated by P01.cells”. • 4. Create a New DB Analysis in Scinamic using the “HTFC-Cell Pharm” template. • 5. Load Incyte file “barcode”.csv. • 6. Load Echo file with the generated Echo report (P:\LabData\Echo\Project\SMARTCAR\Echo Report\Labcyte Echo Dose-Response) • 7. Edit Platemap.xlsx with the plate barcodes. • 8. Load Plate Map with this file. • 9. Cleanup compound Ids, mask control outliers, and assign curves.
Using the above assay the HTFC DC50 data was determined for the compounds in Table 2 below.
Example 6: HiBit and HTFC DC50 Data for Representative Compounds of the Present Invention

**Q.** How did the DC50 turn out when `CNC(=O)c1cnc2cc(OC)c(OCC3CCN(C(=O)CCCNC(=O)CNc4cccc5c4C(=O)N(C4CCC(=O)NC4=O)C5=O)CC3)cc2c1Nc1ccccc1` (centres unmarked) [Compound 370, 6-((1-(4-(2-((2-(2,6-dioxopiperidin-3-yl)-1,3-dioxoisoindolin-4-yl)amino)acetamido)butanoyl)piperidin-4-yl)methoxy)-7-methoxy-N-methyl-4-(phenylamino)quinoline-3-carboxamide] was run?
**A.** < 100 nM

**Q.** Which DC50 does the source give for `CNC(=O)c1cnc2cc(OC)c(OCC3CCN(CCCCNC(=O)CNc4cccc5c4C(=O)N(C4CCC(=O)NC4=O)C5=O)CC3)cc2c1Nc1ccccc1` (centres unmarked) [Compound 371, 6-((1-(4-(2-((2-(2,6-dioxopiperidin-3-yl)-1,3-dioxoisoindolin-4-yl)amino)acetamido)butyl)piperidin-4-yl)methoxy)-7-methoxy-N-methyl-4-(phenylamino)quinoline-3-carboxamide] here?
**A.** < 100 nM

**Q.** For `COc1cc2ncc(C(=O)NC(C)(C)C)c(Nc3ccccc3)c2cc1-c1ccc(C(=O)NCCCCn2cc(CNc3cccc4c3C(=O)N(C3CCC(=O)NC3=O)C4=O)nn2)nc1` (centres unmarked) [Compound 373, N-(tert-butyl)-6-(6-((4-(4-(((2-(2,6-dioxopiperidin-3-yl)-1,3-dioxoisoindolin-4-yl)amino)methyl)-1H-1,2,3-triazol-1-yl)butyl)carbamoyl)pyridin-3-yl)-7-methoxy-4-(phenylamino)quinoline-3-carboxamide], which DC50 is on record?
**A.** < 100 nM

**Q.** Which DC50 does the source give for `CNC(=O)c1cnc2cc(OC)c(-c3cnc(C(=O)NCCCCn4cc(CNc5cccc6c5C(=O)N(C5CCC(=O)NC5=O)C6=O)nn4)cn3)cc2c1Nc1ccccc1` (centres unmarked) [Compound 380, 6-(5-((4-(4-(((2-(2,6-dioxopiperidin-3-yl)-1,3-dioxoisoindolin-4-yl)amino)methyl)-1H-1,2,3-triazol-1-yl)butyl)carbamoyl)pyrazin-2-yl)-7-methoxy-N-methyl-4-(phenylamino)quinoline-3-carboxamide] here?
**A.** < 100 nM

**Q.** For `CNC(=O)c1cnc2ccc(NCCCCCCCCCCNC(=O)COc3cccc4c3C(=O)N(C3CCC(=O)NC3=O)C4=O)cc2c1NC1CC1` (centres unmarked) [Compound 460, 4-(cyclopropylamino)-6-((10-(2-((2-(2,6-dioxopiperidin-3-yl)-1,3-dioxoisoindolin-4-yl)oxy)acetamido)decyl)amino)-N-methylquinoline-3-carboxamide], which DC50 is on record?
**A.** < 100 nM
